Source: patent US20240174718A1, “RYANODINE RECEPTOR INHIBITOR COMPOUNDS AND METHODS RELATING THERETO” (Vanderbilt University, priority 2022, published 2024)
Where two headings read alike, the source gives them in different places.

Key:
RyR2 [1] = molecular target: T1, RyR2 (Mus musculus, UniProt E9Q401); test: Calcium spark frequency in permeabilized Casq2 knockout cardiomyocytes (screen for RyR2 activity); format: cell-based
T1 construct: spontaneous openings of intracellular RyR2 Ca^2+ release channels; endogenous in cells; host or cells: ventricular cardiomyocytes isolated from Casq2-/- mice (saponin-permeabilized in A1, intact in A7)
T1 sequence (E9Q401 whole entry): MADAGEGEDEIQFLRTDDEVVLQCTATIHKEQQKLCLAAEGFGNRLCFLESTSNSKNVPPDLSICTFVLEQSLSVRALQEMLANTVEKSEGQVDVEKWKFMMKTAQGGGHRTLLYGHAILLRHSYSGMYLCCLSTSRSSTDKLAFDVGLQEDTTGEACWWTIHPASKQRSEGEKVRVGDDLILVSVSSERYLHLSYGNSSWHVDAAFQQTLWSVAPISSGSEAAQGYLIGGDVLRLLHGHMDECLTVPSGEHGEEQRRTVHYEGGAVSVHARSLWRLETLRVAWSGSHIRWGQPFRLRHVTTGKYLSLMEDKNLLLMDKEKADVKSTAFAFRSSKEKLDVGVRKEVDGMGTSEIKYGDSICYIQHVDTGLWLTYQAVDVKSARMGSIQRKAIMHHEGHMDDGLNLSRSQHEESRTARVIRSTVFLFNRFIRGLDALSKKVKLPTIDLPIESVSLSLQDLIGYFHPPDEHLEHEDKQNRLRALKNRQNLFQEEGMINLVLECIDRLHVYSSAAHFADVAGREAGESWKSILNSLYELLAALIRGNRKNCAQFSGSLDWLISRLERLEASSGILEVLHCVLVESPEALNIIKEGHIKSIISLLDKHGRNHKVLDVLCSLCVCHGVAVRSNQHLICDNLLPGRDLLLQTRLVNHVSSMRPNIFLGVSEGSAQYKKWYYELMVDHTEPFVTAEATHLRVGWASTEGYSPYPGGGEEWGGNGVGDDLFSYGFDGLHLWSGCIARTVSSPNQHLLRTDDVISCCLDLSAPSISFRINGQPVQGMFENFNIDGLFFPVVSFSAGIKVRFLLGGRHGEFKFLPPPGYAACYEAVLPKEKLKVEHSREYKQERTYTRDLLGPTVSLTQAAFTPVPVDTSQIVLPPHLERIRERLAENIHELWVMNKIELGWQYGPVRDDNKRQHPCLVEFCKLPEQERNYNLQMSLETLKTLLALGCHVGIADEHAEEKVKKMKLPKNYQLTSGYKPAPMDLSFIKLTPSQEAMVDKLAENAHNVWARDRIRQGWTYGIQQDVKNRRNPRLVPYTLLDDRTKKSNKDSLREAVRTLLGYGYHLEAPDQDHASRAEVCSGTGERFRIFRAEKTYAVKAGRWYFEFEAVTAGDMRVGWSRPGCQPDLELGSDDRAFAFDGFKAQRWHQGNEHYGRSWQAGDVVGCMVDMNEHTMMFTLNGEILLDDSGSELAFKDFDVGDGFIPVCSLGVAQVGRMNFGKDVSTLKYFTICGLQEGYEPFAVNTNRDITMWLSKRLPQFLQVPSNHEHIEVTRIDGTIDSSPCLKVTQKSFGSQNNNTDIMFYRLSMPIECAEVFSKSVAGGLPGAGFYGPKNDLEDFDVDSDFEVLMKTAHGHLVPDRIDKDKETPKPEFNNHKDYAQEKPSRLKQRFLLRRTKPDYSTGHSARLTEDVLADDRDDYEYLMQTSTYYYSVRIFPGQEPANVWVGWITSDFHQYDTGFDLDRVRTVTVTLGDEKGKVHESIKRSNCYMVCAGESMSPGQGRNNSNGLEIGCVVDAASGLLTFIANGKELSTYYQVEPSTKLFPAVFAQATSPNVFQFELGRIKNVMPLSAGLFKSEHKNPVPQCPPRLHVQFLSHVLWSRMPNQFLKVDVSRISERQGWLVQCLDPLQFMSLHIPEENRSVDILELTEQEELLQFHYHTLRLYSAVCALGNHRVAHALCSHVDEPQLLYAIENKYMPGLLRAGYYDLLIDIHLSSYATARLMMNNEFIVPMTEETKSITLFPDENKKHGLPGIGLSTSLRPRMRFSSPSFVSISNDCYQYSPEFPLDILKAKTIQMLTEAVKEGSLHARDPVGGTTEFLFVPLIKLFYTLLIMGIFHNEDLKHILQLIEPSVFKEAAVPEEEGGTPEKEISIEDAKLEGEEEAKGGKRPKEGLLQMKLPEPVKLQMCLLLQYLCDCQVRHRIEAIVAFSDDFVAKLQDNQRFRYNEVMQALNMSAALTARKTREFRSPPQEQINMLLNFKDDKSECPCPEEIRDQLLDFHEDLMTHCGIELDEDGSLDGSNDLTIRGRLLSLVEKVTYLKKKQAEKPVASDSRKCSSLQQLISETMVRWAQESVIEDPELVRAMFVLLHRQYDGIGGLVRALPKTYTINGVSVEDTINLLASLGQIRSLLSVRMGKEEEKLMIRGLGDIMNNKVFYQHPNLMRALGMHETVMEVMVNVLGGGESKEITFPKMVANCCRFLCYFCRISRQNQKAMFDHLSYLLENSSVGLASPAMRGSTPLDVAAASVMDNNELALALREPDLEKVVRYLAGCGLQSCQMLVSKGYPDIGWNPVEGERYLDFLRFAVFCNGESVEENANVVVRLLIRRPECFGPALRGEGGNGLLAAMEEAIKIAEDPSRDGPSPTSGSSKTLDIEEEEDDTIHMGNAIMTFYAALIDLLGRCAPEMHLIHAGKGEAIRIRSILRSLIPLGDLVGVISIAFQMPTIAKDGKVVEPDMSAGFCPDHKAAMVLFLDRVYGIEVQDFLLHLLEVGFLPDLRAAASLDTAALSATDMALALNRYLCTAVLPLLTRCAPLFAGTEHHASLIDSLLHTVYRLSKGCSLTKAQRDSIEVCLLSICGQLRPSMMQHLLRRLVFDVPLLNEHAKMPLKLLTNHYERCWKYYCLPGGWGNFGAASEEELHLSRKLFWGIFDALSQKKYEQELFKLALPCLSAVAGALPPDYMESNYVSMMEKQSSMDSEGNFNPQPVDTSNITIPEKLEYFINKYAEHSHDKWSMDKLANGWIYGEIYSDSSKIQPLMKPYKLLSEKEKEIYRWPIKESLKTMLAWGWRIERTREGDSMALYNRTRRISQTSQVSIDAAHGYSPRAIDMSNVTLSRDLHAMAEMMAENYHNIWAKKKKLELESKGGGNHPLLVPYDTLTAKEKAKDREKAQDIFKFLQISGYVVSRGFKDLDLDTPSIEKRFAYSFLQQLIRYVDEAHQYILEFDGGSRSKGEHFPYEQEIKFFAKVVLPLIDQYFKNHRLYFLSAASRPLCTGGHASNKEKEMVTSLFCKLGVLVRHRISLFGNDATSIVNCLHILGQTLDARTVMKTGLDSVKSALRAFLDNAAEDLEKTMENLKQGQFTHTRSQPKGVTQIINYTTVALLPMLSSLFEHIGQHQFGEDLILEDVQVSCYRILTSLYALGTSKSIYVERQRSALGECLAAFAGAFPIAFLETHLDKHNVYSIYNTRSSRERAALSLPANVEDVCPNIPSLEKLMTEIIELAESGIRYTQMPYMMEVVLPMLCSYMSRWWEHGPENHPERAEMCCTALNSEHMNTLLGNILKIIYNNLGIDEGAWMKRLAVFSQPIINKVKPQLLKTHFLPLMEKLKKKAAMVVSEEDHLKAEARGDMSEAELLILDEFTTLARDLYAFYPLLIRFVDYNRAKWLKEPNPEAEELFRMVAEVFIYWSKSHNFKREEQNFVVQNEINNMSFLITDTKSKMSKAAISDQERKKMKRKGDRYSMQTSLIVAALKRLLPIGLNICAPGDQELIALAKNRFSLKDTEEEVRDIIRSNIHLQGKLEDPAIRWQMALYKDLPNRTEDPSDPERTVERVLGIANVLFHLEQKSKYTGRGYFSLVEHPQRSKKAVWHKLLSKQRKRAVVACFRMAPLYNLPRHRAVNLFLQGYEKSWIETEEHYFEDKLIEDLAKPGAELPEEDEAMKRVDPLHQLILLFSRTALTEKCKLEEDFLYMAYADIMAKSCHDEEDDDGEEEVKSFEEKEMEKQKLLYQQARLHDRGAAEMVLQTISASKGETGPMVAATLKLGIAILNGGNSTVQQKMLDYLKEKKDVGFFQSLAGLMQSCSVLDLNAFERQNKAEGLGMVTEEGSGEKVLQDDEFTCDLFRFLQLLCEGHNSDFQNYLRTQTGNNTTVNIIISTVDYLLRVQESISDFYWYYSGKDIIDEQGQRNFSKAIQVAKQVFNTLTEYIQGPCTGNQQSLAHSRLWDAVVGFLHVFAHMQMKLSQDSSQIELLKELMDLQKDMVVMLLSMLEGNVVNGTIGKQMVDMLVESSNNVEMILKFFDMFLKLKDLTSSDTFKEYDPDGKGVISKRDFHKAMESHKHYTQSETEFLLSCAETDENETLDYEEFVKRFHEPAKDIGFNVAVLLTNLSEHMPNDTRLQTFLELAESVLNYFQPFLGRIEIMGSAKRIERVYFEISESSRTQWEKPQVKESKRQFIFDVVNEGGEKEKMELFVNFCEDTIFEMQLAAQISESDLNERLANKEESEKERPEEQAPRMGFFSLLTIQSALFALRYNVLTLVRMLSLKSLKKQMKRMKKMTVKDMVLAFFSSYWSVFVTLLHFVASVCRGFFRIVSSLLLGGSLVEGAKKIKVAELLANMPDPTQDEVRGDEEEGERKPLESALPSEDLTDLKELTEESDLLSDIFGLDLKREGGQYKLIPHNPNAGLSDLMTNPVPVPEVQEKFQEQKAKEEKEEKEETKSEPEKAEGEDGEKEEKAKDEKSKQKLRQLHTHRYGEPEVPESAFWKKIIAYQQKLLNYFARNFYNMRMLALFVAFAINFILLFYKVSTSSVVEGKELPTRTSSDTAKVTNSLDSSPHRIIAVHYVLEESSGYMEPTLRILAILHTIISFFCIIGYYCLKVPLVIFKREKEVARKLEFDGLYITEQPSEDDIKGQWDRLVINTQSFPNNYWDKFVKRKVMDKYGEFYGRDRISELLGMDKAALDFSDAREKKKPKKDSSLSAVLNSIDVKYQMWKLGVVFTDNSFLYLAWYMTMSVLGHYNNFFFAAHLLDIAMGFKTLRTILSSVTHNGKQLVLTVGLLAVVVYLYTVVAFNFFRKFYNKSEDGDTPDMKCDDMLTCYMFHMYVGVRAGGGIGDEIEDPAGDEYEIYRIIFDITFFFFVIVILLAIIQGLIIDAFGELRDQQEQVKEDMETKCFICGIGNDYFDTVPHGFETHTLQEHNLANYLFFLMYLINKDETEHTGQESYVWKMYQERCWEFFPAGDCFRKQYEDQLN
Procedure: FIGS. 3(A)-3(E) show a biological screen for cardiac ryanodine receptor (RyR2) activity. Note that ‘ent-24’=9, and ‘ent-18’ refers to structure 8 in FIG. 1, which is also the enantiomer of a natural product. (3A) Calcium spark frequency in permeabilized murine cardiomyocytes was recorded as an index of RyR2 activity. Compounds were screened at 25 uM concentration after 10-minute incubation. *=p<0.001 by one-way ANOVA with Tukey's post-hoc test. (3B) Incubation time was extended to 60 minutes for the 12- and 30-membered rings. (3C) The seco-acid precursors to 12- and 18-membered rings were tested at 25 uM. (3D) Concentration response curve for the 18-membered ring and (3E) 24-membered ring. Cells were incubated for 30 minutes
Activity of Ring-Size Analogues. […] Ventricular cardiomyocytes were isolated, permeabilized with saponin, and incubated with vehicle (DMSO) or 25 μM of selected compound. RyR2 activity was measured in the form of calcium sparks, which are elementary Ca^2+ release events generated by spontaneous openings of intracellular RyR2 Ca^2+ release channels. Importantly, saponin selectively permeabilizes the sarcolemmal membrane, leaving the SR membrane intact and ensuring equivalent access of the compounds to the SR membrane where RyR2 resides.
The compounds were first screened by incubating cardiomyocytes for 10 minutes at 25 μM concentration and compared to vehicle (DMSO) conditions.

RyR2 [2] = molecular target: T2, RyR2 (Sus scrofa, UniProt A0A5G2R1W3); conditions: read-out: IC50, ryanodine binding assay (ent-1 comparison); cited from earlier work
T2 construct: isolated SR vesicles derived from porcine cardiac muscle; from tissue; host or cells: porcine heart (cardiac sarcoplasmic reticulum vesicles)

RyR2 [3] = molecular target: T1, RyR2; conditions: read-out: IC50, intact cardiomyocyte assay (ent-1 comparison); cited from earlier work
[4] = cited from earlier work
Casq2-/- mice = conditions: cited from earlier work
[5] = test system: mammalian cardiac ryanodine receptor (RyR2); conditions: cited from earlier work

| Substance | RyR2-mediated Ca2+ spark frequency (RyR2 [1]; 25 μM, 10 minutes incubation, vs vehicle (DMSO)) | IC50 (RyR2 [2]) [nM] | IC50 (RyR2 [3]) [nM] | half-life of ent-1 ([4]; 3 mg/kg dose) [h] | half-life of ent-1 ([4]; 30 mg/kg dose) [h] | t1/2 of ent-1 ([4]; mice) [h] | reduction in ventricular ectopy burden (ent-1) (Casq2-/- mice; 30 mg/kg, same arrhythmia induction protocol) [%] | antiarrhythmic efficacy in vivo (ent-1) (Casq2-/- mice; single dose study, 3 and 30 mg/kg i.p., Casq2-/- mice) | RyR2-mediated spontaneous calcium release [5] | potency of inhibition of mammalian cardiac ryanodine receptor calcium release channels [5] | activity in the calcium spark assay (summary statement) (RyR2 [1]) |
| --- | --- | --- | --- | --- | --- | --- | --- | --- | --- | --- | --- |
| (+)-ent-verticilide [ent-1] | significantly inhibited | 100 | 90 | 6.9 | 6.4 | 6.92 | 70 | antiarrhythmic efficacy | significantly reduced | sub-micromolar potency |  |
| (−)-nat-verticilide [reference compound] |  |  |  |  |  |  |  |  | no effect |  | none of these were active |
